The target of this experiment is T1, 6HIS-Tev-LRRK2 (1326-2527) (Homo sapiens, UniProt Q5S007).
T1 construct: A LRRK2 cDNA encoding residues 1326-2527 was received from Dundee University; made in house; host or cells: Spodoptera frugiperda Sf9 (baculovirus, pFB-HTb)
T1 sequence (Q5S007 1326-2527): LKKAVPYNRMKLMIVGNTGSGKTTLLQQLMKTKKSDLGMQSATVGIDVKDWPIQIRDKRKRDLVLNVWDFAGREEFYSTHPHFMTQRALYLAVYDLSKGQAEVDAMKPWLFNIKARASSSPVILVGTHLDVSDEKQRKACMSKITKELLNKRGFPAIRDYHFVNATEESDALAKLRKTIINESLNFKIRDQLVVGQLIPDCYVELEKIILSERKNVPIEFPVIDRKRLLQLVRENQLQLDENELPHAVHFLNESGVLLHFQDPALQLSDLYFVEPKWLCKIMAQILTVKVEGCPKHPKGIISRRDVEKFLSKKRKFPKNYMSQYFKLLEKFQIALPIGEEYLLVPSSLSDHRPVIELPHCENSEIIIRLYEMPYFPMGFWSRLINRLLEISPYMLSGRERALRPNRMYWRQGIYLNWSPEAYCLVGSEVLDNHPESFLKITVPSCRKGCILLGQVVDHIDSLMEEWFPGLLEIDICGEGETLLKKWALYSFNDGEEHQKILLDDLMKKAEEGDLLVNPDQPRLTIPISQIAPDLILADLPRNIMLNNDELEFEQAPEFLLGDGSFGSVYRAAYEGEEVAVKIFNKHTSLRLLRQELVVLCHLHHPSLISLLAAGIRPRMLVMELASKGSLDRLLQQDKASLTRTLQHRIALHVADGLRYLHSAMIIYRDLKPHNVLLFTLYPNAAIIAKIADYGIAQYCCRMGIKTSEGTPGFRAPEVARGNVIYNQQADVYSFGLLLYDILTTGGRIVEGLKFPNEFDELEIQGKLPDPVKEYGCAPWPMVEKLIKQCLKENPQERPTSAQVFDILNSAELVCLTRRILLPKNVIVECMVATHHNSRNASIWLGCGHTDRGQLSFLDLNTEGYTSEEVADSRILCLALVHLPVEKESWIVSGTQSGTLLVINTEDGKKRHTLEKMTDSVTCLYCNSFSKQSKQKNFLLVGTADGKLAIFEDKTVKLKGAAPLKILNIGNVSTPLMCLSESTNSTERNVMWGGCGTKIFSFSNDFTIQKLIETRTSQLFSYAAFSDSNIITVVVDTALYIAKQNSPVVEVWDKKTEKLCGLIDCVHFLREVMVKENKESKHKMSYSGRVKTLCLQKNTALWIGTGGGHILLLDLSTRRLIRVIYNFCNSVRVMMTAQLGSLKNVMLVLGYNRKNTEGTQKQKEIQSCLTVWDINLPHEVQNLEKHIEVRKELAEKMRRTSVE
Nature of the experiment: Recombinant LRRK2 enzyme peptide substrate TR-FRET assay. The following applies: 60 nM LRRK2 enzyme; 10 uM ATP; read-out: pIC50 in the recombinant LRRK2 enzyme peptide substrate TR-FRET assay (converted). It is filed as biochemical. How it is done: A LRRK2 cDNA encoding residues 1326-2527 was received from Dundee University (described in M. Jaleel et al., 2007, Biochem J, 405: 407-417). This gene fragment was subcloned into pFB-HTb (Invitrogen) using BamHI and NotI restriction sites. The LRRK2 plasmid was recombined into the baculovirus genome according to the BAC-to-BAC protocol described by Invitrogen. Transfection into Spodoptera frugiperda (Sf9) insect cells was performed using Cellfectin (Invitrogen), according to the manufacturer's protocol to generate P1 and P2 baculovirus stocks.
Sf9 cells were grown in HyClone SFX (Thermo Scientific) growth media at 27° C., 80 rpm in shake flask until of a sufficient volume to inoculate a bioreactor. The cells were grown in a 20 liter working volume Wave bioreactor (GE Healthcare) at 27° C., 50% dissolved oxygen and an agitation rate 22 rocks per minute, 10 degree rock angle, 200 ml/min air with a cell concentration of approximately 6×e6 cells/ml. The cells were infected with P2 Baculovirus at a multiplicity of infection (MOI) of 3. The cultivation was continued for a 48 hour expression phase. The infected cells were removed from the growth media by centrifugation at 2500 g using a Sorvall RC 3C Plus centrifuge at 2500 g for 20 minutes. The cell pellet was immediately frozen and subsequently supplied for purification.
A 260 g pellet was allowed to thaw in a water bath at 27° C. with 800 ml lysis buffer/buffer A (50 mm Tris-HCl pH 8.5, 300 mM NaCl, 1 mm DTT, 10% glycerol, 1 ml/L calbiochem complete protease inhibitor cocktail and benzonase (50 ul/800 ml)) before being dounce homogenised on ice using 20 strokes per 100 ml. The suspension was packed in ice and sonicated at 50% amplitude for 3 min 10 sec on/off using a ¾″ probe. The suspension was then centrifuged at 100,000 g for 90 min, at 4° C.
The lysate (700 ml) was decanted from the insoluble pellet and contacted for 3 h at 4 C with 10 ml His bind Ni NTA resin by end over end mixing. The resin was recovered by centrifugation, 3000 g, 5 min at 4 C, and packed in an XK16 column. The column was then washed with 10 column volumes buffer A, 10 column volumes buffer B (buffer A+1M NaCl) and 10 column volumes buffer C (buffer A+20 mM imidazole). The column was then eluted with 15 column volumes buffer D (buffer A+300 mM imidazole) collecting 2 ml fractions. All washes and elution were conducted at 4 ml/min.
Fractions identified by SDS-PAGE as containing protein of interest were pooled and loaded directly onto a 320 ml SEC Superdex 200 pg column that was pre-equilibrated with buffer E (50 mM Tris-HCl pH 8.5, 300 mM NaCl, 10% glycerol, 1 mM DTT). The column was loaded and eluted with 1.2 column volumes buffer E at 2 ml/min collecting 2 ml fractions. Fractions identified by SDS-PAGE as containing protein of interest were tested for activity.
Production of Biotin-Loner LRRKtide
The peptide (biotin-[…]-OH) was assembled at a […] scale using FMOC solid phase peptide synthesis on an ACT 357 MPS automated peptide synthesizer. The resulting crude peptide was cleaved from the resin using a 95:2.5:2.5 mix of trifluoroacetic acid: triisopropylsilane: water. The crude cleaved peptide was purified by reverse phase HPLC, eluting with a 5-35% gradient of 0.1% trifluoroacetic acid/acetonitrile in 0.1% trifluoroacetic acid/water.
Recombinant LRRK2 Enzyme Peptide Substrate TR-FRET Assay
This assay for LRRK2 inhibition is based on the detection of phosphorylation of the peptide ‘longer LRRKtide’ (biotin-[…]-OH) using a time resolved-fluorescence resonance energy transfer (TR-FRET) assay. It uses an antibody labelled europium chelate donor, W-1024 (Eu) and Streptavidin-Surelight APC acceptor (APC). When in close proximity, the excitation of Eu at 330 nm leads to energy transfer to APC with emission of light at 665 nm,
Assay Protocol • 1. A 10 mM test compound was dissolved in 100% DMSO and serially diluted 1 in 4. […]
Background: Time-resolved FRET reads energy transfer from a long-lived donor to a nearby acceptor.

Consider `CCOc1nc(Nc2cn(C3CCN(C)CC3)nc2C)nc2[nH]ccc12` [Example E19, 4-ethoxy-N-(3-methyl-1-(1-methylpiperidin-4-yl)-1H-pyrazol-4-yl)-7H-pyrrolo-[2,3-d]-pyrimidin-2-amine], for which the IC50 was no more than 100 nM. As to `Cc1c(Nc2nc(OCC3CC3)c3cn[nH]c3n2)cnn1CC(C)(C)O` [Example E24, 1-(4-((4-(cyclopropylmethoxy)-1H-pyrazolo-[3,4-d]-pyrimidin-6-yl)amino)-5-methyl-1H-pyrazol-1-yl)-2-methylpropan-2-ol], the IC50 was no more than 100 nM.

In the case of `CCOc1nc(Nc2cnn(C3CCCC3(C)O)c2C)nc2[nH]ccc12` (single isomer, unassigned) [Example E78, trans-2-(4-((4-ethoxy-7H-pyrrolo-[2,3-d]pyrimidin-2-yl)amino)-5-methyl-1H-pyrazol-1-yl)-1-methylcyclopentanol], the IC50 is no more than 100 nM.

Values taken from patent US10618901B2 (GlaxoSmithKline Intellectual Property Development Limited, priority 2014, dated 2020).
